Source: paper PMC10376059, “New NADPH Oxidase 2 Inhibitors Display Potent Activity against Oxidative Stress by Targeting p22^phox-p47^phox Interactions” (Antioxidants, 2023)

Tests used:
[1] = system: cardiomyocytes isolated from mdx mice; experiment: NOX2-mediated ROS production (DCF-DA, confocal) in mdx cardiomyocytes; format: cell-based, mouse; conditions: 20 µM
Description: Cardiomyocytes were isolated from mdx mice (C57BL/10ScSn-DMDmdx/J, stock number 001801M, Jackson Laboratories, Bar Harbor, […], USA). Male mdx mice of 19 months of age were used, which were housed in individual cages with water and food ad libitum. All the procedures were adjusted to the “Guide for the Care and Use of Laboratory Animals” (1996) of the National Institute of Health and were approved by the Institutional Committee for Animal Care and Use of the Universidad de Talca. Mice were pre-medicated with heparin i.p. (200U.) and then sacrificed by cervical dislocation. The heart was rapidly removed, cannulated through the aorta, and retrogradely perfused in a steady flow (2 mL/min) at 37 °C. The hearts were initially perfused for 10 min with a Ca^2+-free bicarbonate buffer solution containing (in mM) 120 NaCl; 5.4 KCl; 1.2 MgSO4; 1.2 NaH2PO4; 5.6 glucose; 20 NaHCO3; 10 BDM, and 5 taurine, bubbled with a 95% O2–5% CO2 mixture. Enzyme digestion was performed with collagenase type II (1 mg/mL; Worthington Biochemical Corp., Lakewood, NJ, USA) and protease type XIV (0.1 mg/mL; Sigma-Aldrich) as previously reported. Isolated cardiomyocytes were transferred to 1.5 mL Eppendorf tubes and preincubated with the heteroaryl acrylonitrile compounds.
Cardiomyocytes isolated from mdx mice were transferred to Eppendorf tubes to be incubated with 1 μM of the indole heteroaryl-acrylonitrile derivatives for 30 min, protected from light, at room temperature. VAS2870 (20 μM) was used as a positive control for NOX2 inhibition. 2′,7′-dichlorofluorescein diacetate (DCF-DA) (10 μM) was then added and incubated for 15 min. Subsequently, it was allowed to sediment by gravity to remove the supernatant, and the pellets obtained were in a phosphate saline solution (PBS). 200 μL of the cell suspension were placed on pre-treated polylysine slides (Thermo Fischer, USA) and fixed with 2% paraformaldehyde (Sigma-Aldrich®, St. Louis, MO, USA) for 10 min at 4 °C. […] From the acquired images, the fluorescence intensity was quantified at 495 nm, and the data were reported as fluorescence intensity per pixel.

p47^phox = target: T1, p47^phox (Homo sapiens, UniProt P14598); experiment: p47phox translocation from cytosol to membrane (Western blot) in PMA-stimulated HL-60 differentiated cells; format: cell-based; conditions: PMA 0.8 µM, 20 µM
T1 construct: we evaluated p47^phox translocation from the cytosol to the membrane in HL-60 differentiated cells; endogenous in cells; host or cells: neutrophil-differentiated HL-60 cells treated with PMA; membrane and cytosolic fractions obtained by cryo-fracture
T1 sequence (P14598 1-390): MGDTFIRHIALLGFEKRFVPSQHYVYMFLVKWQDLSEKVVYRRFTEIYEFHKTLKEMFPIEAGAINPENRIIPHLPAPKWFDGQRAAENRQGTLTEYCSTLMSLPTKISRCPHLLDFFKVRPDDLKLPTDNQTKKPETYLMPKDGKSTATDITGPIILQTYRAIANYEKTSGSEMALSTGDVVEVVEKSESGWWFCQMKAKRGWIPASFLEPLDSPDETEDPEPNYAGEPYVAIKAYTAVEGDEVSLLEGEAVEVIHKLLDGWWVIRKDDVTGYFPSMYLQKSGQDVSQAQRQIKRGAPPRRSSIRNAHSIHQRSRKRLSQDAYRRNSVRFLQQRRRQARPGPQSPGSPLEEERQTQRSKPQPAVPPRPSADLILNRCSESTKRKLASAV
Procedure: Neutrophil-differentiated HL-60 cells (2 × 10^6 cells/mL) were incubated at 37 °C in a humid atmosphere with 5% CO2 and 50 μM of the different acrylonitrile compounds, then PMA 0.8 μM was added and incubated for 1 h to induce the activation of the enzyme NADPH oxidase. As a positive inhibition control, VAS2870 (20 μM) was used. Another two controls were performed: one with cells activated by PMA in the presence of DMSO, and the other (NA, non-activated) with cells in the absence of PMA and the acrylonitrile compounds. In 15 mL conical tubes, 5 mL of cell suspension from each treatment and control condition was transferred at 2 × 10^6 cells/mL and centrifuged at 1000 rpm at 4 °C for 10 min. The supernatant was then discarded, and each pellet was re-suspended in 2 mL of a 4% PBS solution with 2 mM EGTA and 0.25 mM PMSF frozen at −80 °C for 10 min. Then each pellet was thawed on ice. After this, the cell suspension was passed through a glass tissue homogenizer (Deltalab®, I.C.T, S.L, La Rioja, Spain) 20 times. The freezing-thawing and homogenization processes were repeated three times. Finally, the homogenate was centrifuged at 15,000 rpm at 4 °C for 15 min. The supernatant (cytosolic fraction) was removed from the pellet (membranes were prepared). A fraction was removed for the determination of total proteins, and the remainder was stored at −80 °C for further analysis. […]

isolated rat hearts = experiment: Ischemia-reperfusion in isolated rat heart (Langendorff); conditions: 100 µM, TTC staining

SMILES | NOX2-derived ROS, DCF (in words) [1] | translocation of p47phox to the membrane (in words) (p47^phox) | infarcted area (in words) (isolated rat hearts)
c1ccc(Cn2nnc3c(Sc4nc5ccccc5o4)ncnc32)cc1 [VAS2870, 7-(1,3-Benzoxazol-2-ylsulfanyl)-3-benzyl-3H-[1,2,3]triazolo [4,5-d]pyrimidine, reference compound] | reduced | significantly reduced the translocation of p47^phox to the membrane | 
COc1cc(C(C)=O)ccc1O [apocynin] |  |  | reduced the infarcted area
